In patent US11407736B2 (priority 2019, dated 2022):
Where two headings read alike, the source gives them in different places.

Assays:
RIPK1 = RIPK1 (Homo sapiens (Human), UniProt Q13546); assay: RIPK1 ADP-Glo biochemical kinase assay
Description: The final reaction volume was 5.0ul.
Adding 5 μl of ADP-Glo™ terminated the reaction.

L929 cells = assay: L929 cell necroptosis assay (TNFa + zVAD, CellTiter-Glo); type: cell-based, murine; details: Mus musculus
Description: (§1) In this example, U937 and L929 cells were exposed to compounds of the present disclosure and a cell necroptosis assay was conducted to evaluate the compounds' activity against human RIP1 and murine RIP1.
U937 and L929 cells were obtained from the American Type Culture Collection (Manassa, Va., USA). Both cells were maintained in logarithmic growth phase in complete RPMI 1640 media (Sigma, ST Louis, Mo., USA) supplemented with 10% fetal bovine serum (Sigma, ST Louis, Mo., USA) at 37° C. with 5% CO2. For necroptosis assay, L929 cells were plated for 18 h in 100 μL/well medium at 10K cells/well in Costar 96-well black clear-bottom plates (Fisher Scientific, Hampton, N.H., USA); U937 cells were plated on the day of the assay in 50 4/well medium containing 60 uM zVAD-fink (Lonza, Basel, Switzerland) at 50K cells/well. Medium from L929 cells were removed from the 96-well plates and replaced with 50 μL/well new medium containing 40 uM zVAD-fink. Each compound of the present disclosure evaluated in this example was serially diluted in DMSO from 2.5 mM in 4-fold dilutions, and then diluted 1:125 in complete medium. 50 μL/well 2× of the compound was then added to the cells in the plates. […] The relative amount of necroptosis cells was determined by luminescent using a Wallac Victor2 Luminometer (PerkinElmer, Waltham, Mass., USA) and a CellTiter-Glo® Luminescent Cell Viability Reagent Assay (Promega, Madison, Wis., USA) added per manufacturer instructions after 18 hours of TNFa stimulation at 37° C. with 5% CO2.

U937 cells = assay: U937 cell necroptosis assay (TNFa + zVAD, CellTiter-Glo); type: cell-based, human; details: Homo sapiens, U-937, U937 cells, TNFa + zVAD; read-out: U937 Zvad TNF CTG Recovery, U937, TNFa + zVAD (IC50)
Description: as §1
U937 and L929 cells were obtained from the American Type Culture Collection (Manassa, Va., USA). Both cells were maintained in logarithmic growth phase in complete RPMI 1640 media (Sigma, ST Louis, Mo., USA) supplemented with 10% fetal bovine serum (Sigma, ST Louis, Mo., USA) at 37° C. with 5% CO2. For necroptosis assay, L929 cells were plated for 18 h in 100 μL/well medium at 10K cells/well in Costar 96-well black clear-bottom plates (Fisher Scientific, Hampton, N.H., USA); U937 cells were plated on the day of the assay in 50 4/well medium containing 60 uM zVAD-fink (Lonza, Basel, Switzerland) at 50K cells/well. Medium from L929 cells were removed from the 96-well plates and replaced with 50 μL/well new medium containing 40 uM zVAD-fink. Each compound of the present disclosure evaluated in this example was serially diluted in DMSO from 2.5 mM in 4-fold dilutions, and then diluted 1:125 in complete medium. 50 μL/well 2× of the compound was then added to the cells in the plates. The cells were pre-incubated with the compound for 1 hour at 37° C. with 5% CO2 and before addition of 10 μL/well 1 1×TNFa (Peprotech, Rocky Hill, N.J., USA) to give a final concentration of 2 ng/mL for TNFa. The relative amount of necroptosis cells was determined by luminescent using a Wallac Victor2 Luminometer (PerkinElmer, Waltham, Mass., USA) and a CellTiter-Glo® Luminescent Cell Viability Reagent Assay (Promega, Madison, Wis., USA) added per manufacturer instructions after 18 hours of TNFa stimulation at 37° C. with 5% CO2. This example establishes that embodiments of the compounds described herein have unexpectedly potent activity against human RIP1 and murine RIP1, which allows their assessment in in vivo mouse models of disease.

[1] = read-out: RIPK1 ADP-Glo Kinase (IC50)
[2] = L929, L929 cells, TNFa + zVAD, read-out: L929-CTG-recovery, L929, TNFa + zVAD (IC50)

Sequence of RIPK1 (Q13546 whole entry, species assumed): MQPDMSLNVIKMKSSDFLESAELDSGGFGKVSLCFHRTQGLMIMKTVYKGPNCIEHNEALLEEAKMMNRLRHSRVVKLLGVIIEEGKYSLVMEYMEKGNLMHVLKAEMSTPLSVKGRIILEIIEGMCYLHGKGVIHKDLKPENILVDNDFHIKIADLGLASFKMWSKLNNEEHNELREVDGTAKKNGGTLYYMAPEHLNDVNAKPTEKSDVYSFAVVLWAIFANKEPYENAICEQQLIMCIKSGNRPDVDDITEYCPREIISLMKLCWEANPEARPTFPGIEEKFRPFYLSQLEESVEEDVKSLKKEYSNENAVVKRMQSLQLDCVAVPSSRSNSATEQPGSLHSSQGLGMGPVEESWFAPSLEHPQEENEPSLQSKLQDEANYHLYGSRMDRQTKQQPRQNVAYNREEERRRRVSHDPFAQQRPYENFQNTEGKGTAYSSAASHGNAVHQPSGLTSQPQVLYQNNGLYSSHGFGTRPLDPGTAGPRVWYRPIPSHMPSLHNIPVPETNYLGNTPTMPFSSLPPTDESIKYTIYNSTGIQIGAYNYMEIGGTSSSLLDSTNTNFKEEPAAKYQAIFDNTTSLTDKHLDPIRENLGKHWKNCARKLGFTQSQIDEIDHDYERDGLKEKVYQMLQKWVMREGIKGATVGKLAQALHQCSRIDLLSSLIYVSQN

Row | Compound | IC50 (RIPK1; [1]) | IC50 (L929 cells; [2]) | IC50 (U937 cells) | IC50 (L929 cells; L929, read-out: L929-CTG-recovery, L929, TNFa + zVAD (IC50), L929 cells, TNFa + zVAD) | IC50 (RIPK1)
1 | CN1C(=O)[C@@H](NC(=O)c2n[nH]c(Cc3ccccc3)n2)COc2ccc(CCC(=O)Nc3ccc4cn[nH]c4c3)cc21 [Compound I-3, (S)—N-(7-(3-((1H-indazol-6-yl)amino)-3-oxopropyl)-5-methyl-4-oxo-2,3,4,5-tetrahydrobenzo[b][1,4]oxazepin-3-yl)-5-benzyl-1H-1,2,4-triazole-3-carboxamide] | 40.2 nM | 428 nM | 4.9 nM | – | –
2 | CN1C(=O)[C@@H](NC(=O)c2ncn(Cc3ccccc3F)n2)COc2ccc(CCC(=O)O)cc21 [Compound I-6, (S)-3-(3-(1-(2-fluorobenzyl)-1H-1,2,4-triazole-3-carboxamido)-5-methyl-4-oxo-2,3,4,5-tetrahydrobenzo[b][1,4]oxazepin-7-yl)propanoic acid] | 72.4 nM | 97500 nM | 43.8 nM | – | –
3 | CN1C(=O)[C@@H](NC(=O)c2n[nH]c(Cc3ccccc3)n2)COc2ccc(CCC(=O)Nc3ccc4cccnc4c3)cc21 [Compound I-12, (S)-5-benzyl-N-(5-methyl-4-oxo-7-(3-oxo-3-(quinolin-7-ylamino)propyl)-2,3,4,5-tetrahydrobenzo[b][1,4]oxazepin-3-yl)-1H-1,2,4-triazole-3-carboxamide] | 52 nM | – | 5.3 nM | 42000 nM | –
4 | CN1C(=O)[C@@H](NC(=O)c2n[nH]c(Cc3ccccc3)n2)COc2ccc(CCCO)cc21 [Compound I-14, (S)-5-benzyl-N-(7-(3-hydroxypropyl)-5-methyl-4-oxo-2,3,4,5-tetrahydrobenzo[b][1,4]oxazepin-3-yl)-1H-1,2,4-triazole-3-carboxamide] | 73 nM | 5880 nM | 11.4 nM | – | –
5 | CN1C(=O)[C@@H](NC(=O)c2n[nH]c(Cc3ccccc3)n2)COc2ccc(CCCCO)cc21 [Compound I-15, (S)-5-benzyl-N-(7-(4-hydroxybutyl)-5-methyl-4-oxo-2,3,4,5-tetrahydrobenzo[b][1,4]oxazepin-3-yl)-1H-1,2,4-triazole-3-carboxamide] | 136 nM | 2200 nM | 4.8 nM | – | –
6 | CN1C(=O)[C@@H](NC(=O)c2n[nH]c(Cc3ccccc3)n2)COc2ccc(CCCCOCc3ccccn3)cc21 [Compound I-16, (S)-5-benzyl-N-(5-methyl-4-oxo-7-(4-(pyridin-2-ylmethoxy)butyl)-2,3,4,5-tetrahydrobenzo[b][1,4]oxazepin-3-yl)-1H-1,2,4-triazole-3-carboxamide] | 1630 nM | 5670 nM | 51.7 nM | – | –
7 | CN1C(=O)[C@@H](NC(=O)c2n[nH]c(Cc3ccccc3)n2)COc2ccc(CCCCNc3ccccn3)cc21 [Compound I-17, (S)-5-benzyl-N-(5-methyl-4-oxo-7-(4-(pyridin-2-ylamino)butyl)-2,3,4,5-tetrahydrobenzo[b][1,4]oxazepin-3-yl)-1H-1,2,4-triazole-3-carboxamide] | 491 nM | 368 nM | 2.4 nM | – | –
8 | CN1C(=O)[C@@H](NC(=O)c2ncn(Cc3c(Cl)cccc3Cl)n2)COc2ccc(CCC(=O)N3CCCC3)cc21 [Compound I-18, (S)-1-(2,6-dichlorobenzyl)-N-(5-methyl-4-oxo-7-(3-oxo-3-(pyrrolidin-1-yl)propyl)-2,3,4,5-tetrahydrobenzo[b][1,4]oxazepin-3-yl)-1H-1,2,4-triazole-3-carboxamide] | 164 nM | 280 nM | 1.3 nM | – | –
9 | CN1C(=O)[C@@H](NC(=O)c2ncn(Cc3c(Cl)cccc3Cl)n2)COc2ccc(CCC(=O)NC3CC3)cc21 [Compound I-19, (S)—N-(7-(3-(cyclopropylamino)-3-oxopropyl)-5-methyl-4-oxo-2,3,4,5-tetrahydrobenzo[b][1,4]oxazepin-3-yl)-1-(2,6-dichlorobenzyl)-1H-1,2,4-triazole-3-carboxamide] | 146 nM | 1300 nM | 2.7 nM | – | –
10 | CN1C(=O)[C@@H](NC(=O)c2n[nH]c(Cc3ccccc3)n2)COc2ccc(CN3CCN(c4ccncc4)CC3)cc21 [Compound I-20, (S)-5-benzyl-N-(5-methyl-4-oxo-7-((4-(pyridin-4-yl)piperazin-1-yl)methyl)-2,3,4,5-tetrahydrobenzo[b][1,4]oxazepin-3-yl)-1H-1,2,4-triazole-3-carboxamide] | 153 nM | 53400 nM | 13.6 nM | – | –
11 | CN1C(=O)[C@@H](NC(=O)c2cc(Oc3ccccc3)ccn2)COc2cc(N3CCC4(CCOCC4)CC3)ccc21 [II-26, (S)—N-(5-methyl-4-oxo-8-(3-oxa-9-azaspiro[5.5]undecan-9-yl)-2,3,4,5-tetrahydrobenzo[b][1,4]oxazepin-3-yl)-4-phenoxypicolinamide] | – | – | 510 nM | – | 193 nM

Further molecules by falling IC50 (RIPK1; [1]), results first:

Row | IC50 (RIPK1; [1]) | Compound | IC50 (L929 cells; [2]) | IC50 (U937 cells) | IC50 (L929 cells; L929, read-out: L929-CTG-recovery, L929, TNFa + zVAD (IC50), L929 cells, TNFa + zVAD) | IC50 (RIPK1)
12 | 57.1 nM | CN1C(=O)[C@@H](NC(=O)c2n[nH]c(Cc3ccccc3)n2)COc2ccc(CCC(=O)N3CCOCC3)cc21 [Compound I-11, (S)-5-benzyl-N-(5-methyl-7-(3-morpholino-3-oxopropyl)-4-oxo-2,3,4,5-tetrahydrobenzo[b][1,4]oxazepin-3-yl)-1H-1,2,4-triazole-3-carboxamide] | 14100 nM | 8.1 nM | – | –
13 | 52.9 nM | CCOC(=O)CCc1ccc2c(c1)N(C)C(=O)[C@@H](NC(=O)c1ncn(Cc3c(Cl)cccc3Cl)n1)CO2 [Compound I-8, Ethyl (S)-3-(3-(1-(2,6-dichlorobenzyl)-1H-1,2,4-triazole-3-carboxamido)-5-methyl-4-oxo-2,3,4,5-tetrahydrobenzo[b][1,4]oxazepin-7-yl)propanoate] | 9.2 nM | 1.4 nM | – | –
14 | 42.9 nM | CN1C(=O)[C@@H](NC(=O)c2n[nH]c(Cc3ccccc3)n2)COc2ccc(CCC(=O)N3CCCC3)cc21 [Compound I-10, (S)-5-benzyl-N-(5-methyl-4-oxo-7-(3-oxo-3-(pyrrolidin-1-yl)propyl)-2,3,4,5-tetrahydrobenzo[b][1,4]oxazepin-3-yl)-1H-1,2,4-triazole-3-carboxamide] | 11200 nM | 7.9 nM | – | –
15 | 21 nM | CN1C(=O)[C@@H](NC(=O)c2ncn(Cc3ccccc3F)n2)COc2ccc(CCC(=O)Nc3ccc4cn[nH]c4c3)cc21 [Compound I-7, (S)—N-(7-(3-((1H-indazol-6-yl)amino)-3-oxopropyl)-5-methyl-4-oxo-2,3,4,5-tetrahydrobenzo[b][1,4]oxazepin-3-yl)-1-(2-fluorobenzyl)-1H-1,2,4-triazole-3-carboxamide] | 1960 nM | 0.9 nM | – | –
16 | 19.7 nM | CCOC(=O)CCc1ccc2c(c1)N(C)C(=O)[C@@H](NC(=O)c1ncn(Cc3ccccc3F)n1)CO2 [Compound I-5, Ethyl (S)-3-(3-(1-(2-fluorobenzyl)-1H-1,2,4-triazole-3-carboxamido)-5-methyl-4-oxo-2,3,4,5-tetrahydrobenzo[b][1,4]oxazepin-7-yl)propanoate] | 18.8 nM | 0.5 nM | – | –
17 | 19 nM | CCOC(=O)CCc1ccc2c(c1)N(C)C(=O)[C@@H](NC(=O)c1n[nH]c(Cc3ccccc3)n1)CO2 [Compound I-1, Ethyl (S)-3-(3-(5-benzyl-1H-1,2,4-triazole-3-carboxamido)-5-methyl-4-oxo-2,3,4,5-tetrahydrobenzo[b][1,4]oxazepin-7-yl)propanoate] | 2360 nM | 2.7 nM | – | –
